Data: ChEMBL document CHEMBL4342407, “Thieno[2,3-d]pyrimidine as a promising scaffold in medicinal chemistry: Recent advances” (Bioorg Med Chem, 2019)

Key:
Bacillus subtilis = experiment: Antibacterial activity against Bacillus subtilis assessed as zone inhibition at 500 ug/ml by cup plate agar diffusion method; assay type: functional; conditions: read-out: IZ
Staphylococcus aureus = experiment: Antibacterial activity against Staphylococcus aureus assessed as zone inhibition at 500 ug/ml by cup plate agar diffusion method; assay type: functional; conditions: read-out: IZ
Escherichia coli = experiment: Antibacterial activity against Escherichia coli assessed as zone inhibition at 500 ug/ml by cup plate agar diffusion method; assay type: functional; conditions: read-out: IZ
Pseudomonas aeruginosa = experiment: Antibacterial activity against Pseudomonas aeruginosa assessed as zone inhibition at 500 ug/ml by cup plate agar diffusion method; assay type: functional; conditions: read-out: IZ
ECa-109 cell line = experiment: Antiproliferative activity against human EC109 at 50 ug/ml after 48 hrs by MTT assay; assay type: functional; conditions: ECa-109, 48 h
HepG2 [1] = experiment: Antiproliferative activity against human HepG2 at 50 ug/ml after 48 hrs by MTT assay; assay type: functional; conditions: HepG2, 48 h
MGC-803 = experiment: Antiproliferative activity against human MGC803 at 50 ug/ml after 48 hrs by MTT assay; assay type: functional; conditions: MGC-803, 48 h
MCF7 [2] = experiment: Antiproliferative activity against human MCF7 by MTT assay; assay type: functional, cell-based
HepG2 [3] = experiment: Antiproliferative activity against human HepG2 cells by MTT assay; assay type: functional, cell-based
Candida albicans = experiment: […] activity against Candida albicans assessed as zone inhibition at 500 ug/ml by cup plate agar diffusion method; assay type: functional; conditions: for zone of inhibition at 500 µg/mL: read-out: IZ
Rattus norvegicus [4] = experiment: Antiinflammatory activity in po dosed Wistar rat assessed as reduction in carrageenan-induced paw edema pretreated for 1 hr followed by carrageenan challenge and measured over 2 to 4 hrs post carrageenan challenge by plethysmography; assay type: functional
Rattus norvegicus [5] = experiment: Antiinflammatory activity in Wistar rat assessed as inhibition of cotton pellet-induced granuloma at 75 mg/kg, po administered daily for 7 days and measured on day 8 relative to control; assay type: functional
Rattus norvegicus [6] = experiment: Antiinflammatory activity in Wistar rat model of Freund's adjuvant-induced arthritis assessed as inhibition of arthritis by measuring reduction in paw volume at 75 mg/kg, po administered once daily for 8 days starting from day 7 post Freund's adjuvant treatment and measured after 18 days by mercury plethysmography relative to control; assay type: functional
Mus musculus [7] = experiment: Antiinflammatory activity in Swiss mouse assessed as inhibition of TPA-induced ear edema at 1 mg/ear applied topically and measured 4 hrs post-TPA challenge relative to control; assay type: functional
Mus musculus [8] = experiment: Analgesic activity in Swiss albino mouse assessed as protection against acetic acid-induced writhing at 15 mg/kg, po pretreated for 30 mins followed by acetic acid challenge and measured after 20 mins relative to control; assay type: functional
[9] = Ulcerogenic activity in Sprague-Dawley rat assessed as ulcer index at 20 mg/kg, ip pretreated followed by pylorus ligation and measured at 4 hrs post ligation; assay type: toxicity, organism-based; conditions: in vivo
Rattus norvegicus [10] = experiment: Antiinflammatory activity in Sprague-Dawley rat assessed as protection against carrageenan-induced edema at 40 mg/kg, po pretreated for 1 hr followed by carrageenan challenge and measured after 3 hrs by mercury plethysmometer relative to control; assay type: functional
[11] = Ulcerogenic activity in Wistar albino rat assessed as ulcer index at 250 mg/kg, ip pretreated for 1 hr followed by pylorus ligation and measured at 4 hrs post ligation; assay type: toxicity, organism-based; conditions: in vivo
Rattus norvegicus [12] = experiment: Anti-ulcer activity in Wistar albino rat assessed as reduction in pylorus ligation induced ulcer at 250 mg/kg, ip pretreated for 1 hr followed by pylorus ligation and measured at 4 hrs post ligation; assay type: functional
HepG2 [13] = experiment: Antiproliferative activity against human HepG2 after 24 hrs by MTT assay; assay type: functional, cell-based; conditions: HepG2, 24 h
HEp-2 = experiment: Antiproliferative activity against human Hep2 after 24 hrs by MTT assay; assay type: functional, cell-based; conditions: HEp-2, 24 h
MCF7 [14] = experiment: Antiproliferative activity against human MCF7 after 24 hrs by MTT assay; assay type: functional, cell-based; conditions: MCF7, 24 h
PC-3 = experiment: Antiproliferative activity against human PC3 after 24 hrs by MTT assay; assay type: functional, cell-based; conditions: PC-3, 24 h
HeLa = experiment: Antiproliferative activity against human HeLa after 24 hrs by MTT assay; assay type: functional, cell-based

In the case of `CC1(C)S[C@@H]2[C@H](NC(=O)[C@H](N)c3ccccc3)C(=O)N2[C@H]1C(=O)O` [AMPICILLIN], the zone of inhibition at 500 µg/mL (Bacillus subtilis) is reported as 24 mm, the zone of inhibition at 500 µg/mL (Staphylococcus aureus) is reported as 22 mm and the zone of inhibition at 500 µg/mL (Escherichia coli) is reported as 25 mm. For the same compound, the zone of inhibition at 500 µg/mL (Pseudomonas aeruginosa) was 21 mm.

In the case of `CCOP(=O)(OCC)C(Nn1c(C)nc2sc(CC)cc2c1=O)c1ccc([N+](=O)[O-])cc1` (stereo not given), the inhibition at 50 µg/mL (ECa-109 cell line) is reported as 54%, the inhibition at 50 µg/mL (HepG2 [1]) is reported as 61.1% and the inhibition at 50 µg/mL (MGC-803) is reported as 59.8%.

`Fc1cccc(CNc2nc(C(F)(F)F)nc3sc4c(c23)CCC4)c1` gave an IC50 (MCF7 [2]) of 5.18 µM and an IC50 (HepG2 [3]) of 7.31 µM.

`FC(F)(F)c1nc(NCc2ccccc2)c2c3c(sc2n1)CCC3` showed an IC50 (MCF7 [2]) of 11.8 µM and an IC50 (HepG2 [3]) of 13.5 µM.

NYSTATIN showed an inhibition zone (IZ) (Candida albicans) of 20.8 mm.

With `CN1C(C(=O)Nc2ccccn2)=C(O)c2ccccc2S1(=O)=O` [PIROXICAM] the ED50 (Rattus norvegicus [4]) was 7.8 mg/kg, the inhibition in vivo at 75 mg/kg (Rattus norvegicus [5]) was 67.9% and the inhibition in vivo at 75 mg/kg (Rattus norvegicus [6]) was 51.6%. For the same compound, the “inhibition (INH)” value (Mus musculus [7]) was 12.2%.

For `CC(C)Cc1ccc(C(C)C(=O)O)cc1` (stereo not given) [IBUPROFEN], the ED50 (Rattus norvegicus [4]) was 19.7 mg/kg, the inhibition in vivo at 75 mg/kg (Rattus norvegicus [5]) was 44.6% and the “inhibition (INH)” value (Mus musculus [7]) was 40.2%.

`CC(=O)Oc1ccccc1C(=O)O` [ASPIRIN] gave an ED50 (Rattus norvegicus [4]) of 69.3 mg/kg, an inhibition in vivo at 75 mg/kg (Rattus norvegicus [5]) of 30.1% and an inhibition in vivo at 75 mg/kg (Rattus norvegicus [6]) of 40%. For the same compound, the “inhibition (INH)” value (Mus musculus [7]) was 20.1%, the Activity (Mus musculus [8]) was 53% and the UI [9] was 1.1 to 1.7.

For `CSC1=[N+](N)C(c2ccccc2)c2c(sc3c2CCCC3)N1.[I-]` (stereo not given), the ED50 (Rattus norvegicus [4]) was 72.5 mg/kg, the inhibition in vivo at 75 mg/kg (Rattus norvegicus [5]) was 29.9% and the inhibition in vivo at 75 mg/kg (Rattus norvegicus [6]) was 10%. The “inhibition (INH)” value (Mus musculus [7]) was 20.8%.

For `COc1ccc(C2=NC3SC=C([C@H]4CC[C@H]5[C@@H]6CC=C7CC(O)CC[C@]7(C)[C@H]6CC[C@]45C)C3C(=O)N2N)cc1` (stereo not given in full), the Activity (Rattus norvegicus [10]) was 92%, the UI [11] was 0.29 and the inhibition in vivo at 250 mg/kg (Rattus norvegicus [12]) was 91.9%.

`FC(F)(F)Oc1ccc(C2=Nc3ccccc3SC(c3cc4cncnc4s3)C2)cc1` (stereo not given) showed a zone of inhibition at 500 µg/mL (Bacillus subtilis) of 15.3 mm, a zone of inhibition at 500 µg/mL (Staphylococcus aureus) of 15.1 mm and a zone of inhibition at 500 µg/mL (Escherichia coli) of 12.3 mm. For the same compound, the zone of inhibition at 500 µg/mL (Pseudomonas aeruginosa) was 13.2 mm and the zone of inhibition at 500 µg/mL (Candida albicans) was 10.6 mm.

Work on `C[C@]12CC[C@H]3[C@@H](CC=C4C[C@H](O)CC[C@@]43C)[C@@H]1CC[C@@H]2c1csc(N)c1-c1nnc(SCC(=O)c2ccccc2)n1-c1ccccc1` yielded an Activity (Rattus norvegicus [10]) of 99%, a UI [11] of 0.83 and an inhibition in vivo at 250 mg/kg (Rattus norvegicus [12]) of 76.9%.

Compound `c1ccc2c(c1)N=C(c1cnccn1)CC(c1cc3cncnc3s1)S2` (stereo not given) has a zone of inhibition at 500 µg/mL (Bacillus subtilis) of 16.2 mm, a zone of inhibition at 500 µg/mL (Staphylococcus aureus) of 15.7 mm and a zone of inhibition at 500 µg/mL (Escherichia coli) of 13.6 mm. It also gave a zone of inhibition at 500 µg/mL (Pseudomonas aeruginosa) of 13.4 mm and a zone of inhibition at 500 µg/mL (Candida albicans) of 10.8 mm.

Compound `COc1ccc(/C=C/C(=O)c2sc3nc(S)n(-c4ccccc4)c(=O)c3c2C)cc1` has an IC50 (HepG2 [13]) of 32.8 µM, an IC50 (HEp-2) of 39.5 µM and an IC50 (MCF7 [14]) of 28.9 µM. It also gave an IC50 (PC-3) of 28.9 µM and an IC50 (HeLa) of 22.7 µM.

In the case of `FC(F)(F)c1nc(NCc2ccc(Cl)cc2)c2c3c(sc2n1)CCC3`, the IC50 (MCF7 [2]) is reported as 13.8 µM and the IC50 (HepG2 [3]) is reported as 8.63 µM.

For `Nc1c(C(=O)Nc2ccc(I)cc2)sc2nc(N3CCOCC3)nc(-c3ccccc3)c12`, the IC50 (MCF7 [14]) was 42.8 µM and the IC50 (HeLa) was 60.8 µM.

In the case of `C[C@]12CC[C@H]3[C@@H](CC=C4CC(O)CC[C@@]43C)[C@@H]1CC[C@@H]2C1=CSC2N=CN(N)C(=O)C12` (stereo not given in full), the Activity (Rattus norvegicus [10]) is reported as 24%, the UI [11] is reported as 1.02 and the inhibition in vivo at 250 mg/kg (Rattus norvegicus [12]) is reported as 71.7%.

Compound `CCc1cc2c(=O)n(NC(c3ccc([N+](=O)[O-])cc3)P(=O)(OC(C)C)OC(C)C)c(C)nc2s1` (stereo not given) has an inhibition at 50 µg/mL (ECa-109 cell line) of 58.5%, an inhibition at 50 µg/mL (HepG2 [1]) of 58.1% and an inhibition at 50 µg/mL (MGC-803) of 84.3%.

In the case of `FC(F)(F)c1ccc(C2=Nc3ccccc3SC(c3cc4cncnc4s3)C2)cc1` (stereo not given), the zone of inhibition at 500 µg/mL (Bacillus subtilis) is reported as 18.8 mm, the zone of inhibition at 500 µg/mL (Staphylococcus aureus) is reported as 17 mm and the zone of inhibition at 500 µg/mL (Escherichia coli) is reported as 16.2 mm. The zone of inhibition at 500 µg/mL (Pseudomonas aeruginosa) was 16.1 mm and the zone of inhibition at 500 µg/mL (Candida albicans) was 16 mm.
